Measurements reported in patent publication US10800792B2, “Inhibitors of Bruton's tyrosine kinase and method of their use” (JANSSEN PHARMACEUTICA NV, priority 2015, dated 2020).

Biological target: unphosphorylated-BTK kinase domain (UP-BTK), GST-tagged human BTK (389-659aa) (Homo sapiens (Human), UniProt Q06187)
Test: BTK kinase Lanthascreen binding assay
Details: pIC50 = negative log of the IC50 in molar
Summary of the method: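 Tracer-displacement binding assay against the non-phosphorylated enzyme, read by Lanthascreen. Reported: pIC50.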

[1] = 60 minutes incubation, 50 nM Tracer 236
[2] = unphosphorylated-BTK kinase domain, 50 nM Tracer 236, 60 minutes

Sequence of unphosphorylated-BTK kinase domain (UP-BTK), GST-tagged human BTK (389-659aa) (Q06187 389-659): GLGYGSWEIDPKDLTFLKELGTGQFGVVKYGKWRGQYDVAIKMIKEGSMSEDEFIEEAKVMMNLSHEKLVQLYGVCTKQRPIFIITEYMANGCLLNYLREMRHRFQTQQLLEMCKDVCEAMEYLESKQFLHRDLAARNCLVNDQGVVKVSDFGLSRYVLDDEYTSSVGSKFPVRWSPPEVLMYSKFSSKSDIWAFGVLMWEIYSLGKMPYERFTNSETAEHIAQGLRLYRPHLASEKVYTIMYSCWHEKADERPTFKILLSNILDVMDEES

Row | SMILES | BTK_I_binding pIC50 [1] | BTK_I_binding pIC50 [2]
1 | Cc1cc(Oc2ccccc2)ccc1N1C(=O)Nc2c(C(=O)NCCN3CCOCC3)sc3nccc1c23 [Example 275, 5-(2-Methyl-4-phenoxyphenyl)-N-(2-morpholinoethyl)-4-oxo-4,5-dihydro-3H-1-thia-3,5,8-triazaacenaphthylene-2-carboxamide] | 6.3 | 
2 | Cc1cc(Oc2ccccc2)ccc1N1C(=O)Nc2c(C(=O)NC[C@H]3CCCN3)sc3nccc1c23 [Example 276, (R)-5-(2-Methyl-4-phenoxyphenyl)-4-oxo-N-(pyrrolidin-2-ylmethyl)-4,5-dihydro-3H-1-thia-3,5,8-triazaacenaphthylene-2-carboxamide] | 6.3 | 
3 | C=CC(=O)N1CCC[C@@H](NC(=O)c2sc3nccc4c3c2NC(=O)N4c2cccc(C)c2)C1 [Example 279, (R)—N-(1-Acryloylpiperidin-3-yl)-4-oxo-5-(m-tolyl)-4,5-dihydro-3H-1-thia-3,5,8-triazaacenaphthylene-2-carboxamide] | 6.2 | 
4 | O=C(N[C@@H]1CCCNC1)c1sc2nccc3c2c1NC(=O)N3c1ccc(Cl)c(C(F)(F)F)c1 [Example 280, (R)-5-(4-Chloro-3-(trifluoromethyl)phenyl)-4-oxo-N-(piperidin-3-yl)-4,5-dihydro-3H-1-thia-3,5,8-triazaacenaphthylene-2-carboxamide] | 5.8 | 
5 | Cc1cc(OC2CCC2)ccc1N1C(=O)Nc2c(C(=O)N[C@@H]3CCCN(C)C3)sc3nccc1c23 [Example 284, (R)-5-(4-Cyclobutoxy-2-methylphenyl)-N-(1-methylpiperidin-3-yl)-4-oxo-4,5-dihydro-3H-1-thia-3,5,8-triazaacenaphthylene-2-carboxamide] |  | 6.2
6 | C=CC(=O)N1CCC[C@@H](NC(=O)c2sc3nccc4c3c2NC(=O)N4c2cccc(C(F)(F)F)c2)C1 [Example 288, (R)—N-(1-Acryloylpiperidin-3-yl)-4-oxo-5-(3-(trifluoromethyl)phenyl)-4,5-dihydro-3H-1-thia-3,5,8-triazaacenaphthylene-2-carboxamide] |  | 6.2
7 | Cc1cc(Oc2ccccc2)ccc1N1C(=O)Nc2c(C(=O)NCCN3CCOC[C@@H]3C)sc3nccc1c23 [Example 291, (S)-5-(2-Methyl-4-phenoxyphenyl)-N-(2-(3-methylmorpholino)ethyl)-4-oxo-4,5-dihydro-3H-1-thia-3,5,8-triazaacenaphthylene-2-carboxamide] |  | 6.1
8 | C=CC(=O)N1CCC[C@@H](NC(=O)c2sc3nccc4c3c2NC(=O)N4c2cccc(Cl)c2)C1 [Example 294, (R)—N-(1-Acryloylpiperidin-3-yl)-5-(3-chlorophenyl)-4-oxo-4,5-dihydro-3H-1-thia-3,5,8-triazaacenaphthylene-2-carboxamide] |  | 6.1
9 | Cc1cc(Oc2ccccc2)ccc1N1C(=O)Nc2c(C(=O)NCCN3CCOC[C@H]3C)sc3nccc1c23 [Example 296, (R)-5-(2-Methyl-4-phenoxyphenyl)-N-(2-(3-methylmorpholino)ethyl)-4-oxo-4,5-dihydro-3H-1-thia-3,5,8-triazaacenaphthylene-2-carboxamide] |  | 6.1
10 | C=CC(=O)N1CC[C@@H](NC(=O)c2sc3nccc4c3c2NC(=O)N4c2ccc(OC)cc2C)C1 [Example 299, (R)—N-(1-Acryloylpyrrolidin-3-yl)-5-(4-methoxy-2-methylphenyl)-4-oxo-4,5-dihydro-3H-1-thia-3,5,8-triazaacenaphthylene-2-carboxamide] |  | 6.1
11 | C=CC(=O)N1CC[C@@H](NC(=O)c2sc3nccc4c3c2NC(=O)N4c2ccccc2F)C1 [Example 301, (R)—N-(1-Acryloylpyrrolidin-3-yl)-5-(2-fluorophenyl)-4-oxo-4,5-dihydro-3H-1-thia-3,5,8-triazaacenaphthylene-2-carboxamide] |  | 6.0

Other lines, results leading:

Row | BTK_I_binding pIC50 [1] | BTK_I_binding pIC50 [2] | SMILES
12 | 6.3 |  | Cc1cc(Oc2ccccc2)ccc1N1C(=O)Nc2c(C(=O)NC3CN(C(C)C)C3)sc3nccc1c23 [Example 273, N-(1-Isopropylazetidin-3-yl)-5-(2-methyl-4-phenoxyphenyl)-4-oxo-4,5-dihydro-3H-1-thia-3,5,8-triazaacenaphthylene-2-carboxamide]
13 | 6.3 |  | Cc1cc(Oc2ccccc2)ccc1N1C(=O)Nc2c(C(=O)N[C@@H]3CCCN(C(=O)/C=C/C(C)(C)C)C3)sc3nccc1c23 [Example 274, (R,E)-N-(1-(4,4-Dimethylpent-2-enoyl)piperidin-3-yl)-5-(2-methyl-4-phenoxyphenyl)-4-oxo-4,5-dihydro-3H-1-thia-3,5,8-triazaacenaphthylene-2-carboxamide]
14 | 6.2 |  | C/C=C(\Cl)C(=O)N1CCC[C@@H](NC(=O)c2sc3nccc4c3c2NC(=O)N4c2ccc(Oc3ccccc3)cc2C)C1 [Example 277, (R,Z)—N-(1-(2-Chlorobut-2-enoyl)piperidin-3-yl)-5-(2-methyl-4-phenoxyphenyl)-4-oxo-4,5-dihydro-3H-1-thia-3,5,8-triazaacenaphthylene-2-carboxamide]
15 | 6.2 |  | C=CC(=O)N1CCC[C@@H](NC(=O)c2sc3nccc4c3c2NC(=O)N4c2ccc(Oc3ccccc3)cc2C(F)(F)F)C1 [Example 278, (R)—N-(1-Acryloylpiperidin-3-yl)-4-oxo-5-(4-phenoxy-2-(trifluoromethyl)phenyl)-4,5-dihydro-3H-1-thia-3,5,8-triazaacenaphthylene-2-carboxamide]
16 | 6.2 |  | Cc1c(Oc2ccccc2)ccc(N2C(=O)Nc3c(C(=O)N[C@@H]4CCCN(C)C4)sc4nccc2c34)c1C [Example 281, (R)-5-(2,3-Dimethyl-4-phenoxyphenyl)-N-(1-methylpiperidin-3-yl)-4-oxo-4,5-dihydro-3H-1-thia-3,5,8-triazaacenaphthylene-2-carboxamide]
17 |  | 6.2 | Cc1cc(Oc2ccccc2)ccc1N1C(=O)Nc2c(C(=O)NCC3CCN(C)C3)sc3nccc1c23 (stereo not drawn) [Example 282, 5-(2-Methyl-4-phenoxyphenyl)-N-((1-methylpyrrolidin-3-yl)methyl)-4-oxo-4,5-dihydro-3H-1-thia-3,5,8-triazaacenaphthylene-2-carboxamide]
18 |  | 6.2 | Cc1cc(Oc2ccccc2OC(C)C)ccc1N1C(=O)Nc2c(C(=O)N[C@@H]3CCCN(C)C3)sc3nccc1c23 [Example 283, (R)-5-(4-(2-Isopropoxyphenoxy)-2-methylphenyl)-N-(1-methylpiperidin-3-yl)-4-oxo-4,5-dihydro-3H-1-thia-3,5,8-triazaacenaphthylene-2-carboxamide]
19 |  | 6.2 | Cc1cc(Oc2ccccc2)ccc1N1C(=O)Nc2c(C(=O)NC[C@H]3CCCN3C)sc3nccc1c23 [Example 285, (R)-5-(2-Methyl-4-phenoxyphenyl)-N-((1-methylpyrrolidin-2-yl)methyl)-4-oxo-4,5-dihydro-3H-1-thia-3,5,8-triazaacenaphthylene-2-carboxamide]
20 |  | 6.2 | Cc1cc(Oc2cc(F)cc(F)c2)ccc1N1C(=O)Nc2c(C(=O)N[C@@H]3CCCN(C)C3)sc3nccc1c23 [Example 286, (R)-5-(4-(3,5-Difluorophenoxy)-2-methylphenyl)-N-(1-methylpiperidin-3-yl)-4-oxo-4,5-dihydro-3H-1-thia-3,5,8-triazaacenaphthylene-2-carboxamide]
21 |  | 6.2 | Cc1ccc(Oc2ccc(N3C(=O)Nc4c(C(=O)N[C@@H]5CCCN(C)C5)sc5nccc3c45)c(C)c2)cc1 [Example 290, (R)-5-(2-Methyl-4-(p-tolyloxy)phenyl)-N-(1-methylpiperidin-3-yl)-4-oxo-4,5-dihydro-3H-1-thia-3,5,8-triazaacenaphthylene-2-carboxamide]
22 |  | 6.1 | Cc1cc(Oc2cccnc2)ccc1N1C(=O)Nc2c(C(=O)N[C@@H]3CCCN(C)C3)sc3nccc1c23 [Example 293, (R)-5-(2-Methyl-4-(pyridin-3-yloxy)phenyl)-N-(1-methylpiperidin-3-yl)-4-oxo-4,5-dihydro-3H-1-thia-3,5,8-triazaacenaphthylene-2-carboxamide]
23 |  | 6.1 | Cc1cc(Oc2ccc(F)cc2)ccc1N1C(=O)Nc2c(C(=O)N[C@@H]3CCCN(C)C3)sc3nccc1c23 [Example 295, (R)-5-(4-(4-Fluorophenoxy)-2-methylphenyl)-N-(1-methylpiperidin-3-yl)-4-oxo-4,5-dihydro-3H-1-thia-3,5,8-triazaacenaphthylene-2-carboxamide]
24 |  | 6.1 | Cc1cc(OC2CCCC2)ccc1N1C(=O)Nc2c(C(=O)N[C@@H]3CCCN(C)C3)sc3nccc1c23 [Example 297, (R)-5-(4-(Cyclopentyloxy)-2-methylphenyl)-N-(1-methylpiperidin-3-yl)-4-oxo-4,5-dihydro-3H-1-thia-3,5,8-triazaacenaphthylene-2-carboxamide]
25 |  | 6.1 | Cc1cc(Oc2ccccc2)ccc1N1C(=O)Nc2c(C(=O)NCCC3CCCN3C)sc3nccc1c23 (stereo not drawn) [Example 298, 5-(2-Methyl-4-phenoxyphenyl)-N-(2-(1-methylpyrrolidin-2-yl)ethyl)-4-oxo-4,5-dihydro-3H-1-thia-3,5,8-triazaacenaphthylene-2-carboxamide]
26 |  | 6.0 | Cc1cc(Oc2ccc(F)cc2F)ccc1N1C(=O)Nc2c(C(=O)N[C@@H]3CCCN(C)C3)sc3nccc1c23 [Example 302, (R)-5-(4-(2,4-Difluorophenoxy)-2-methylphenyl)-N-(1-methylpiperidin-3-yl)-4-oxo-4,5-dihydro-3H-1-thia-3,5,8-triazaacenaphthylene-2-carboxamide]
27 |  | 6.0 | Cc1cc(Oc2ccccc2)c(F)cc1N1C(=O)Nc2c(C(=O)N[C@@H]3CCCN(C)C3)sc3nccc1c23 [Example 303, (R)-5-(5-Fluoro-2-methyl-4-phenoxyphenyl)-N-(1-methylpiperidin-3-yl)-4-oxo-4,5-dihydro-3H-1-thia-3,5,8-triazaacenaphthylene-2-carboxamide]
